{"source": "paper PMC5510229", "about": "“BCAT1 controls metabolic reprogramming in activated human macrophages and is associated with inflammatory diseases” (Nature Communications, 2017)", "test_system": "human monocyte-derived macrophages (hMDMs)", "test": "qRT-PCR / Western blot of activation markers in hMDMs", "assay_type": "cell-based", "conditions": "3 h", "description": "Figure 1 BCAT1 expression and inhibition in human macrophages. […] (b) Chemical structure of ERG240 and leucine. (c) Enzymatic activity of recombinant human BCAT1 and BCAT2 in presence of ERG240. (d) Relative expression of IRG1, HIF1A and IL1B measured by qRT-PCR in control, ERG240-treated (20 mM, 3 h), LPS treated (100 ng ml^−1, 3 h), and LPS+ERG240 treated (LPS, 100 ng ml^−1; ERG240, 20 mM for 3 h) hMDMs. ns, non-significant. All expression values are normalized to those obtained for HPRT gene expression. n=3 healthy donor hMDMs were used in each group. (e) Western blot analysis of IRG1, IL-1β, HIF-1α and beta-actin (ACTB) in control (untreated), ERG240-treated (20 mM, 3 h), LPS treated (100 ng ml^−1, 3 h) and LPS+ERG240 treated (LPS, 100 ng ml^−1; ERG240, 20 mM for 3 h) hMDMs. […]\nhMDMs were lysed in Laemmli sample buffer supplemented with protease inhibitors and resolved by SDS-PAGE, transferred into PVDF membranes, and subjected to immunoblotting with the primary antibodies described above and secondary detection antibodies. The probed proteins were detected using SuperSignal West Femto Chemiluminescent Substrate (Thermo Fisher Scientific Inc., Rockford, IL). […] Results were analysed using the comparative Ct method and each sample was normalized to the indicated reference gene, to account for any cDNA loading differences. […]", "data": [{"smiles": "CC(=O)C(C)CCC(=O)O", "note": "(centres unmarked) [ERG240]", "values": [{"measurement": "IRG1 protein levels (Western blot)", "setting": "LPS 100 ng ml^−1 + ERG240 20 mM", "result": "reduction in IRG1 levels"}, {"measurement": "IRG1 mRNA levels", "setting": "LPS-stimulated hMDMs (100 ng ml^−1), ERG240 20 mM", "result": "dramatic reduction"}]}]}
